Experimental data taken from ChEMBL document CHEMBL3352227, “Synthesis, antimycobacterial and antibacterial evaluation of l-[(1R, 2S)-2-fluorocyclopropyl]fluoroquinolone derivatives containing an oxime functional moiety” (Eur J Med Chem, 2014).
Converted amounts (≈) assume the structure as drawn.

How the values were obtained:
Assay type in all cases: functional
Staphylococcus aureus [1] = assay: Antibacterial activity against methicillin-resistant Staphylococcus aureus 12-2 after 18 to 24 hrs by standard twofold serial dilution method
[2] = system: Staphylococcus epidermidis; assay: Antibacterial activity against methicillin-sensitive Staphylococcus epidermidis 12-8 after 18 to 24 hrs by standard twofold serial dilution method
Staphylococcus aureus [3] = assay: Antibacterial activity against methicillin-sensitive Staphylococcus aureus 12-1 after 18 to 24 hrs by standard twofold serial dilution method
Streptococcus pneumoniae [4] = assay: Antibacterial activity against Streptococcus pneumoniae ATCC 49619 after 18 to 24 hrs by standard twofold serial dilution method
[5] = system: Staphylococcus epidermidis; assay: Antibacterial activity against methicillin-resistant Staphylococcus epidermidis 12-6 after 18 to 24 hrs by standard twofold serial dilution method
Escherichia coli [6] = assay: Antibacterial activity against extended-spectrum beta-lactamase producing Escherichia coli 12-15 after 18 to 24 hrs by standard twofold serial dilution method
Pseudomonas aeruginosa [7] = assay: Antibacterial activity against Pseudomonas aeruginosa 12-14 after 18 to 24 hrs by standard twofold serial dilution method
Klebsiella pneumoniae [8] = assay: Antibacterial activity against Klebsiella pneumoniae 12-1 after 18 to 24 hrs by standard twofold serial dilution method
Staphylococcus aureus [9] = assay: Antibacterial activity against methicillin-resistant Staphylococcus aureus 12-5 after 18 to 24 hrs by standard twofold serial dilution method
Staphylococcus aureus [10] = assay: Antibacterial activity against Staphylococcus aureus ATCC 25923 after 18 to 24 hrs by standard twofold serial dilution method
Klebsiella pneumoniae [11] = assay: Antibacterial activity against Klebsiella pneumoniae 12-2 after 18 to 24 hrs by standard twofold serial dilution method
[12] = system: Staphylococcus epidermidis; assay: Antibacterial activity against methicillin-sensitive Staphylococcus epidermidis 12-3 after 18 to 24 hrs by standard twofold serial dilution method
Staphylococcus aureus [13] = assay: Antibacterial activity against methicillin-sensitive Staphylococcus aureus 12-2 after 18 to 24 hrs by standard twofold serial dilution method
Escherichia coli [14] = assay: Antibacterial activity against extended-spectrum beta-lactamase producing Escherichia coli 12-3 after 18 to 24 hrs by standard twofold serial dilution method
Staphylococcus aureus [15] = assay: Antibacterial activity against methicillin-resistant Staphylococcus aureus 12-4 after 18 to 24 hrs by standard twofold serial dilution method
Escherichia coli [16] = assay: Antibacterial activity against Escherichia coli 12-1 after 18 to 24 hrs by standard twofold serial dilution method
Klebsiella pneumoniae [17] = assay: Antibacterial activity against extended-spectrum beta-lactamase producin Klebsiella pneumoniae 12-14 after 18 to 24 hrs by standard twofold serial dilution method
Escherichia coli [18] = assay: Antibacterial activity against extended-spectrum beta-lactamase producing Escherichia coli 12-14 after 18 to 24 hrs by standard twofold serial dilution method
Staphylococcus aureus [19] = assay: Antibacterial activity against methicillin-sensitive Staphylococcus aureus 12-4 after 18 to 24 hrs by standard twofold serial dilution method
[20] = system: Staphylococcus epidermidis; assay: Antibacterial activity against methicillin-resistant Staphylococcus epidermidis 12-1 after 18 to 24 hrs by standard twofold serial dilution method
Pseudomonas aeruginosa [21] = assay: Antibacterial activity against Pseudomonas aeruginosa 12-12 after 18 to 24 hrs by standard twofold serial dilution method
[22] = system: Staphylococcus epidermidis; assay: Antibacterial activity against methicillin-sensitive Staphylococcus epidermidis 12-1 after 18 to 24 hrs by standard twofold serial dilution method
Escherichia coli [23] = assay: Antibacterial activity against extended-spectrum beta-lactamase producing Escherichia coli 12-2 after 18 to 24 hrs by standard twofold serial dilution method
Klebsiella pneumoniae [24] = assay: Antibacterial activity against extended-spectrum beta-lactamase producin Klebsiella pneumoniae 12-7 after 18 to 24 hrs by standard twofold serial dilution method
Klebsiella pneumoniae [25] = assay: Antibacterial activity against extended-spectrum beta-lactamase producin Klebsiella pneumoniae 12-3 after 18 to 24 hrs by standard twofold serial dilution method
[26] = system: Mycobacterium tuberculosis; assay: Antimycobacterial activity against Mycobacterium tuberculosis H37Rv ATCC 27294 by MABA method
Klebsiella pneumoniae [27] = assay: Antibacterial activity against Klebsiella pneumoniae 12-4 after 18 to 24 hrs by standard twofold serial dilution method
[28] = system: Staphylococcus epidermidis; assay: Antibacterial activity against methicillin-sensitive Staphylococcus epidermidis 12-6 after 18 to 24 hrs by standard twofold serial dilution method
Escherichia coli [29] = assay: Antibacterial activity against Escherichia coli ATCC 25922 after 18 to 24 hrs by standard twofold serial dilution method
Staphylococcus aureus [30] = assay: Antibacterial activity against methicillin-sensitive Staphylococcus aureus 12-5 after 18 to 24 hrs by standard twofold serial dilution method
Klebsiella pneumoniae [31] = assay: Antibacterial activity against extended-spectrum beta-lactamase producin Klebsiella pneumoniae 12-4 after 18 to 24 hrs by standard twofold serial dilution method
Streptococcus pneumoniae [32] = assay: Antibacterial activity against Streptococcus pneumoniae 12-18 after 18 to 24 hrs by standard twofold serial dilution method

Row | Compound | MIC (Staphylococcus aureus [1]) | MIC [2] | MIC (Staphylococcus aureus [3]) | MIC (Streptococcus pneumoniae [4]) | MIC [5] | MIC (Escherichia coli [6]) | MIC (Pseudomonas aeruginosa [7]) | MIC (Klebsiella pneumoniae [8]) | MIC (Staphylococcus aureus [9]) | MIC (Staphylococcus aureus [10]) | MIC (Klebsiella pneumoniae [11]) | MIC [12] | MIC (Staphylococcus aureus [13]) | MIC (Escherichia coli [14]) | MIC (Staphylococcus aureus [15]) | MIC (Escherichia coli [16]) | MIC (Klebsiella pneumoniae [17]) | MIC (Escherichia coli [18]) | MIC (Staphylococcus aureus [19]) | MIC [20] | further results
1 | NC[C@@H]1/C(=N\OCc2ccccc2)CN1c1cc2c(cc1F)c(=O)c(C(=O)O)cn2[C@@H]1C[C@@H]1F | > 128 µg/mL | 2 µg/mL (≈ 4.27 µM) | 1 µg/mL (≈ 2.13 µM) | 0.5 µg/mL (≈ 1.07 µM) | 8 µg/mL (≈ 17.1 µM) | > 128 µg/mL | 32 µg/mL (≈ 68.3 µM) | 0.5 µg/mL (≈ 1.07 µM) | 128 µg/mL (≈ 273 µM) | 0.25 µg/mL (≈ 0.534 µM) | 0.5 µg/mL (≈ 1.07 µM) | 2 µg/mL (≈ 4.27 µM) | 1 µg/mL (≈ 2.13 µM) | 16 µg/mL (≈ 34.2 µM) | > 128 µg/mL | 8 µg/mL (≈ 17.1 µM) | 128 µg/mL (≈ 273 µM) | 128 µg/mL (≈ 273 µM) | 1 µg/mL (≈ 2.13 µM) | 32 µg/mL (≈ 68.3 µM) | MIC (Pseudomonas aeruginosa [21]): 2 µg/mL (≈ 4.27 µM); MIC [22]: 1 µg/mL (≈ 2.13 µM); MIC (Escherichia coli [23]): > 128 µg/mL; MIC (Klebsiella pneumoniae [24]): 2 µg/mL (≈ 4.27 µM); MIC (Klebsiella pneumoniae [25]): 128 µg/mL (≈ 273 µM); MIC [26]: 8 µg/mL (≈ 17.1 µM); MIC (Klebsiella pneumoniae [27]): 0.5 µg/mL (≈ 1.07 µM); MIC [28]: 1 µg/mL (≈ 2.13 µM); MIC (Escherichia coli [29]): 0.25 µg/mL (≈ 0.534 µM); MIC (Staphylococcus aureus [30]): 1 µg/mL (≈ 2.13 µM); MIC (Klebsiella pneumoniae [31]): 16 µg/mL (≈ 34.2 µM); MIC (Streptococcus pneumoniae [32]): 8 µg/mL (≈ 17.1 µM)
2 | CO/N=C1/CCN(c2c(F)cc3c(=O)c(C(=O)O)cn([C@@H]4C[C@@H]4F)c3c2Cl)CC1N (stereo partly drawn) | 32 µg/mL (≈ 72.6 µM) | 4 µg/mL (≈ 9.07 µM) | 0.25 µg/mL (≈ 0.567 µM) | 1 µg/mL (≈ 2.27 µM) | 32 µg/mL (≈ 72.6 µM) | > 128 µg/mL | 128 µg/mL (≈ 290 µM) | 2 µg/mL (≈ 4.54 µM) | 32 µg/mL (≈ 72.6 µM) | 1 µg/mL (≈ 2.27 µM) | 2 µg/mL (≈ 4.54 µM) | 1 µg/mL (≈ 2.27 µM) | 0.25 µg/mL (≈ 0.567 µM) | 32 µg/mL (≈ 72.6 µM) | 64 µg/mL (≈ 145 µM) | 2 µg/mL (≈ 4.54 µM) | > 128 µg/mL | > 128 µg/mL | 0.25 µg/mL (≈ 0.567 µM) | 16 µg/mL (≈ 36.3 µM) | MIC (Pseudomonas aeruginosa [21]): 16 µg/mL (≈ 36.3 µM); MIC [22]: 0.5 µg/mL (≈ 1.13 µM); MIC (Escherichia coli [23]): > 128 µg/mL; MIC (Klebsiella pneumoniae [24]): 16 µg/mL (≈ 36.3 µM); MIC (Klebsiella pneumoniae [25]): > 128 µg/mL; MIC [26]: 16 µg/mL (≈ 36.3 µM); MIC (Klebsiella pneumoniae [27]): 1 µg/mL (≈ 2.27 µM); MIC [28]: 0.5 µg/mL (≈ 1.13 µM); MIC (Escherichia coli [29]): 1 µg/mL (≈ 2.27 µM); MIC (Staphylococcus aureus [30]): 0.25 µg/mL (≈ 0.567 µM); MIC (Klebsiella pneumoniae [31]): 32 µg/mL (≈ 72.6 µM); MIC (Streptococcus pneumoniae [32]): 8 µg/mL (≈ 18.1 µM)
3 | CO/N=C1/CN(c2c(F)cc3c(=O)c(C(=O)O)cn([C@@H]4C[C@@H]4F)c3c2Cl)CC1CN (stereo partly drawn) | 16 µg/mL (≈ 36.3 µM) | 2 µg/mL (≈ 4.54 µM) | 0.125 µg/mL (≈ 0.284 µM) | 0.25 µg/mL (≈ 0.567 µM) | 4 µg/mL (≈ 9.07 µM) | 128 µg/mL (≈ 290 µM) | 16 µg/mL (≈ 36.3 µM) | 0.25 µg/mL (≈ 0.567 µM) | 16 µg/mL (≈ 36.3 µM) | < 0.008 µg/mL | 0.25 µg/mL (≈ 0.567 µM) | 0.5 µg/mL (≈ 1.13 µM) | 0.125 µg/mL (≈ 0.284 µM) | 32 µg/mL (≈ 72.6 µM) | 16 µg/mL (≈ 36.3 µM) | 1 µg/mL (≈ 2.27 µM) | 32 µg/mL (≈ 72.6 µM) | 64 µg/mL (≈ 145 µM) | 0.06 µg/mL (≈ 0.136 µM) | 4 µg/mL (≈ 9.07 µM) | MIC (Pseudomonas aeruginosa [21]): 1 µg/mL (≈ 2.27 µM); MIC [22]: 0.125 µg/mL (≈ 0.284 µM); MIC (Escherichia coli [23]): 64 µg/mL (≈ 145 µM); MIC (Klebsiella pneumoniae [24]): 4 µg/mL (≈ 9.07 µM); MIC (Klebsiella pneumoniae [25]): 32 µg/mL (≈ 72.6 µM); MIC [26]: 4 µg/mL (≈ 9.07 µM); MIC (Klebsiella pneumoniae [27]): 0.25 µg/mL (≈ 0.567 µM); MIC [28]: 0.125 µg/mL (≈ 0.284 µM); MIC (Escherichia coli [29]): 0.125 µg/mL (≈ 0.284 µM); MIC (Staphylococcus aureus [30]): 0.125 µg/mL (≈ 0.284 µM); MIC (Klebsiella pneumoniae [31]): 16 µg/mL (≈ 36.3 µM); MIC (Streptococcus pneumoniae [32]): 1 µg/mL (≈ 2.27 µM)
4 | CCO/N=C1/CN(c2c(F)cc3c(=O)c(C(=O)O)cn([C@@H]4C[C@@H]4F)c3c2Cl)CC1CN (stereo partly drawn) | 16 µg/mL (≈ 35.2 µM) | 2 µg/mL (≈ 4.4 µM) | 0.25 µg/mL (≈ 0.55 µM) | 1 µg/mL (≈ 2.2 µM) | 16 µg/mL (≈ 35.2 µM) | > 128 µg/mL | 32 µg/mL (≈ 70.4 µM) | 0.5 µg/mL (≈ 1.1 µM) | 16 µg/mL (≈ 35.2 µM) | 0.5 µg/mL (≈ 1.1 µM) | 1 µg/mL (≈ 2.2 µM) | 1 µg/mL (≈ 2.2 µM) | 0.125 µg/mL (≈ 0.275 µM) | 32 µg/mL (≈ 70.4 µM) | 16 µg/mL (≈ 35.2 µM) | 2 µg/mL (≈ 4.4 µM) | 64 µg/mL (≈ 141 µM) | 128 µg/mL (≈ 281 µM) | 0.25 µg/mL (≈ 0.55 µM) | 4 µg/mL (≈ 8.79 µM) | MIC (Pseudomonas aeruginosa [21]): 4 µg/mL (≈ 8.79 µM); MIC [22]: 0.5 µg/mL (≈ 1.1 µM); MIC (Escherichia coli [23]): 128 µg/mL (≈ 281 µM); MIC (Klebsiella pneumoniae [24]): 4 µg/mL (≈ 8.79 µM); MIC (Klebsiella pneumoniae [25]): 32 µg/mL (≈ 70.4 µM); MIC [26]: 4 µg/mL (≈ 8.79 µM); MIC (Klebsiella pneumoniae [27]): 1 µg/mL (≈ 2.2 µM); MIC [28]: 0.25 µg/mL (≈ 0.55 µM); MIC (Escherichia coli [29]): 0.5 µg/mL (≈ 1.1 µM); MIC (Staphylococcus aureus [30]): 0.25 µg/mL (≈ 0.55 µM); MIC (Klebsiella pneumoniae [31]): 32 µg/mL (≈ 70.4 µM); MIC (Streptococcus pneumoniae [32]): 4 µg/mL (≈ 8.79 µM)
